Data published in ChEMBL document CHEMBL1152560, “Substituted 2-arylbenzothiazoles as kinase inhibitors: hit-to-lead optimization” (Bioorg Med Chem, 2009).

How the values were obtained:
[1] = biological target: Serine/threonine-protein kinase 16 (Homo sapiens) (UniProt O75716); assay: Residual activity of TSF1 at 10 uM by microplate scintillation counting
[2] = biological target: T1, Tyrosine-protein kinase ITK/TSK (Homo sapiens) (UniProt Q08881); assay: Residual activity of ITK at 10 uM by microplate scintillation counting
T1 sequence (whole entry): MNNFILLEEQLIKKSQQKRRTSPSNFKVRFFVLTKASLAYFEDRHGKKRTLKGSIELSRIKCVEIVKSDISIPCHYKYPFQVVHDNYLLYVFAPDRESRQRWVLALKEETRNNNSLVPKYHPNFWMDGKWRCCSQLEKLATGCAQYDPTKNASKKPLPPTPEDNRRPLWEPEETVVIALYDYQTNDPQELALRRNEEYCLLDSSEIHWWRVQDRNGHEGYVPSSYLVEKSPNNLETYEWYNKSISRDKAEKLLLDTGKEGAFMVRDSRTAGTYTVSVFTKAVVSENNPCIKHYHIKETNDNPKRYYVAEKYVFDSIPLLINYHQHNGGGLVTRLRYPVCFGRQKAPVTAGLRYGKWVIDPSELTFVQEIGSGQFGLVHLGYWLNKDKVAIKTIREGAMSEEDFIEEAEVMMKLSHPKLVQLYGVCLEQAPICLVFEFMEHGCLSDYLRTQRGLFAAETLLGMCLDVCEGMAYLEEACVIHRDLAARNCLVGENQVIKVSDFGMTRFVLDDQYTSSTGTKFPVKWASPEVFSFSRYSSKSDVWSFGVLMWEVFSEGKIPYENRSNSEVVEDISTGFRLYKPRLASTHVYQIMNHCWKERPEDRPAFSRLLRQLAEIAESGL

[3] = biological target: Fibroblast growth factor receptor 3 (Homo sapiens) (UniProt P22607); assay: Residual activity of FGFR3 at 10 uM by microplate scintillation counting
Sequence of Fibroblast growth factor receptor 3 (Homo sapiens) (P22607 23-806 limits assumed): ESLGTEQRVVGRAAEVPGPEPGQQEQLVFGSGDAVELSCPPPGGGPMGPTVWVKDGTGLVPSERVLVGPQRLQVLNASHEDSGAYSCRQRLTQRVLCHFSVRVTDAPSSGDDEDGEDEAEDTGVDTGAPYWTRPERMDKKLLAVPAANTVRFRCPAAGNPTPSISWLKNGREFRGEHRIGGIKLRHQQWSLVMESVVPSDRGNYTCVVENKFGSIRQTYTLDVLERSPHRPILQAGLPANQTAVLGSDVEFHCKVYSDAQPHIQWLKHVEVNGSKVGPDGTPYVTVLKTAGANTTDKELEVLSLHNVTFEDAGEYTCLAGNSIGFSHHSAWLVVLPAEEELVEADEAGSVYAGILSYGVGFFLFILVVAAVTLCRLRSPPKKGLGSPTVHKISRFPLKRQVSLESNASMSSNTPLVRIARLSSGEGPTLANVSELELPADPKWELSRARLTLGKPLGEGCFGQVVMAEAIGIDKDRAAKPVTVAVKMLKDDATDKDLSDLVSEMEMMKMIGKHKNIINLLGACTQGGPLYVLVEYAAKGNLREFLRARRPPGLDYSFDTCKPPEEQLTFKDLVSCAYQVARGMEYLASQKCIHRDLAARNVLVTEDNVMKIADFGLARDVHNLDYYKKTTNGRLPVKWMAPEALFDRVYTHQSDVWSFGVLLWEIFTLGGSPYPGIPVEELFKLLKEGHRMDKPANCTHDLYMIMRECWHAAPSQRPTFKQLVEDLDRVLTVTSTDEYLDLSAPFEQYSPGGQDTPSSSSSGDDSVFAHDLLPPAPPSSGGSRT

[4] = test system: Mast/stem cell growth factor receptor Kit (Homo sapiens), P10721 [T670I]; assay: Residual activity of KIT T670I mutant at 10 uM by microplate scintillation counting
Sequence of Mast/stem cell growth factor receptor Kit (Homo sapiens), P10721 [T670I] (P10721 whole entry T670I): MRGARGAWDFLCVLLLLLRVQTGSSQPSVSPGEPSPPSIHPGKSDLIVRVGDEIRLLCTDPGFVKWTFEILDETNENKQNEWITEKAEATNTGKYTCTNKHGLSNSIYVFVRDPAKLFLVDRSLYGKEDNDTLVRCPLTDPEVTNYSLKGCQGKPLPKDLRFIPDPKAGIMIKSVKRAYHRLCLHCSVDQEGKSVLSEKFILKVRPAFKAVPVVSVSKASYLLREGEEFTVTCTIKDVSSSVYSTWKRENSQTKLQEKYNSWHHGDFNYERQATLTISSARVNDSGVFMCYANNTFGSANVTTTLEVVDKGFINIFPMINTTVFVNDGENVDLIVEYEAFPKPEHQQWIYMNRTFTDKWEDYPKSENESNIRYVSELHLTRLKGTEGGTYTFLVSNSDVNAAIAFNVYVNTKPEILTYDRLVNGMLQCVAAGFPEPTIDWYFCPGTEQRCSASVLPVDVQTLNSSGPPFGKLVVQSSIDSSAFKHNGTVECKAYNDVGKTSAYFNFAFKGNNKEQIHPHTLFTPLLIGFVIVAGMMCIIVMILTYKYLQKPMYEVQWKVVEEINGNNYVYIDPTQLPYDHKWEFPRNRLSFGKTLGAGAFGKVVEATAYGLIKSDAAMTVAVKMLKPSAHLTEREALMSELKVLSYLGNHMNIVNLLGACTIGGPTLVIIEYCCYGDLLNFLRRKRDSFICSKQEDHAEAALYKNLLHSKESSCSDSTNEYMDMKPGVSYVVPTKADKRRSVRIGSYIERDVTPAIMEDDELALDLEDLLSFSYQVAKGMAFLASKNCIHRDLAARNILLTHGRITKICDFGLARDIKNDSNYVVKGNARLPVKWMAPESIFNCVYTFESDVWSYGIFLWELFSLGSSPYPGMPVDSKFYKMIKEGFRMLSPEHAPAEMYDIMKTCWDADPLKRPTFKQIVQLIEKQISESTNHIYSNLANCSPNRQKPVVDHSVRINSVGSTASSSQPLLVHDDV

[5] = biological target: T2, NUAK family SNF1-like kinase 1 (Homo sapiens) (UniProt O60285); assay: Residual activity of ARK5 at 1 uM by microplate scintillation counting
T2 sequence (whole entry): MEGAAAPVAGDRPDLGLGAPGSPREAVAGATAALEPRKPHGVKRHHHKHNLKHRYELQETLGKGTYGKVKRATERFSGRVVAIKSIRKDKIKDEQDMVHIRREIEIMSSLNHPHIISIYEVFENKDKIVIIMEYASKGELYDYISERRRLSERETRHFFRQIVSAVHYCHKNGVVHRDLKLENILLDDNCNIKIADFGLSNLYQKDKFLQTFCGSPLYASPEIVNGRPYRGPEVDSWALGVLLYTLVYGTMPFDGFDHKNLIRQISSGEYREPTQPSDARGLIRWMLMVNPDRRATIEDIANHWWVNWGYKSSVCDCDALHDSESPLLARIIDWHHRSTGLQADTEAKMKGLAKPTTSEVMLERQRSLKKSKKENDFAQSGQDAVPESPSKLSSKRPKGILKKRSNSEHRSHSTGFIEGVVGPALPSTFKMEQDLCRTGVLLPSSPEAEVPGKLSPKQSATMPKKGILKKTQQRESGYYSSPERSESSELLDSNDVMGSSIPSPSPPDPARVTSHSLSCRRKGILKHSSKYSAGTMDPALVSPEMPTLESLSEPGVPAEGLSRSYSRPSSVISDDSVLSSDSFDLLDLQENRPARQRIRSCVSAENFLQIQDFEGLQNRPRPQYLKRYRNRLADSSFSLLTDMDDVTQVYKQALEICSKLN

[6] = biological target: Ribosomal protein S6 kinase alpha-2 (Homo sapiens) (UniProt Q15349); assay: Residual activity of RPS6KA2 at 0.1 uM by microplate scintillation counting
Sequence of Ribosomal protein S6 kinase alpha-2 (Homo sapiens) (Q15349 whole entry): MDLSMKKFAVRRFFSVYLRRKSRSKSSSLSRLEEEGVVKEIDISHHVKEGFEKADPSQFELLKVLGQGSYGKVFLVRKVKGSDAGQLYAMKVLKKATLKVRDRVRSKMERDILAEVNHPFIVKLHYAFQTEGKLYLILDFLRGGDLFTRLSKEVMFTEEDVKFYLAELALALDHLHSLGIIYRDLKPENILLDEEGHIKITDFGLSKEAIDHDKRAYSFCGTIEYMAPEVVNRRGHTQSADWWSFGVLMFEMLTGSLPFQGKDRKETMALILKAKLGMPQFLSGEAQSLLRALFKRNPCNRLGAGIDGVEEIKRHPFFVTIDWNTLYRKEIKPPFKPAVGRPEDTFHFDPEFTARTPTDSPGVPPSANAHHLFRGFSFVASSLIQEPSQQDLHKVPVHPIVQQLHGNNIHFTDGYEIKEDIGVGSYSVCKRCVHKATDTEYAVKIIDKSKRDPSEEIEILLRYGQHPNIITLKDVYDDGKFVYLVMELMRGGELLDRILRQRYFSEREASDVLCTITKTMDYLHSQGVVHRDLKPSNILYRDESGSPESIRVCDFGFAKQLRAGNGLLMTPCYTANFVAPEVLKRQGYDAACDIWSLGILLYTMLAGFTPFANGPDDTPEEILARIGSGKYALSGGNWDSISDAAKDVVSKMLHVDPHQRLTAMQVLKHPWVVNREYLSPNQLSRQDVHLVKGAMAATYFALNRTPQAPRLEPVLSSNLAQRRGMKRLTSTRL

[7] = biological target: Serine/threonine-protein kinase N1 (Homo sapiens) (UniProt Q16512); assay: Residual activity of PRK1 at 10 uM by microplate scintillation counting
[8] = biological target: T3, Ephrin type-B receptor 4 (Homo sapiens) (UniProt P54760); assay: Residual activity of EPHB4 at 0.1 uM by microplate scintillation counting
T3 sequence (whole entry): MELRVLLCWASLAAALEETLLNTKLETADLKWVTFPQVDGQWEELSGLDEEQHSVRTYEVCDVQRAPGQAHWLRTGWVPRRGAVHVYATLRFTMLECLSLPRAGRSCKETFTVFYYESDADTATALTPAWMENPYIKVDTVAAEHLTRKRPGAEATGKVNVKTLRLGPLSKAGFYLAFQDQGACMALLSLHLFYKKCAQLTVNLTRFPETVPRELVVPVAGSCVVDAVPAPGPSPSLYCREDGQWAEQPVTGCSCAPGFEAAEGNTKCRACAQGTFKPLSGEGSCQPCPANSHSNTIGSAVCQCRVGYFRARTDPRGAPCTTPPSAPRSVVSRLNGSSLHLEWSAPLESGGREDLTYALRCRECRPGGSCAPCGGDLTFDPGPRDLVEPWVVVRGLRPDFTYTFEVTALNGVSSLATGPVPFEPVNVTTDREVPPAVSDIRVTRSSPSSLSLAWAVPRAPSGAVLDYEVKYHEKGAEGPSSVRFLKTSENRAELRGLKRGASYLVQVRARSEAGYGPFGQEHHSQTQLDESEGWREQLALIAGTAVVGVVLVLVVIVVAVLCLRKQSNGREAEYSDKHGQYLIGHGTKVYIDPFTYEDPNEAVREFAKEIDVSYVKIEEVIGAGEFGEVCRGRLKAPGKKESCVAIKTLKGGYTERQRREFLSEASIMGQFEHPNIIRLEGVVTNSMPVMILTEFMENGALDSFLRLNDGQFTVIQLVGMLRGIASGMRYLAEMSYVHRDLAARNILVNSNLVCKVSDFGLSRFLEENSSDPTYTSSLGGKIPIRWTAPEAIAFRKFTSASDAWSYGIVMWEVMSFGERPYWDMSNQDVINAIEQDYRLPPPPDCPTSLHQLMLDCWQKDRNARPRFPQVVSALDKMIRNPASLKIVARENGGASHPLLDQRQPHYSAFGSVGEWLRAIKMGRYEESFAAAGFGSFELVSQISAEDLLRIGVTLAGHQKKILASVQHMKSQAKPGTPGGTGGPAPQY

[9] = biological target: Serine/threonine-protein kinase MARK2 (Homo sapiens) (UniProt Q7KZI7); assay: Residual activity of MARK2 at 0.1 uM by microplate scintillation counting
Sequence of Serine/threonine-protein kinase MARK2 (Homo sapiens) (Q7KZI7 whole entry): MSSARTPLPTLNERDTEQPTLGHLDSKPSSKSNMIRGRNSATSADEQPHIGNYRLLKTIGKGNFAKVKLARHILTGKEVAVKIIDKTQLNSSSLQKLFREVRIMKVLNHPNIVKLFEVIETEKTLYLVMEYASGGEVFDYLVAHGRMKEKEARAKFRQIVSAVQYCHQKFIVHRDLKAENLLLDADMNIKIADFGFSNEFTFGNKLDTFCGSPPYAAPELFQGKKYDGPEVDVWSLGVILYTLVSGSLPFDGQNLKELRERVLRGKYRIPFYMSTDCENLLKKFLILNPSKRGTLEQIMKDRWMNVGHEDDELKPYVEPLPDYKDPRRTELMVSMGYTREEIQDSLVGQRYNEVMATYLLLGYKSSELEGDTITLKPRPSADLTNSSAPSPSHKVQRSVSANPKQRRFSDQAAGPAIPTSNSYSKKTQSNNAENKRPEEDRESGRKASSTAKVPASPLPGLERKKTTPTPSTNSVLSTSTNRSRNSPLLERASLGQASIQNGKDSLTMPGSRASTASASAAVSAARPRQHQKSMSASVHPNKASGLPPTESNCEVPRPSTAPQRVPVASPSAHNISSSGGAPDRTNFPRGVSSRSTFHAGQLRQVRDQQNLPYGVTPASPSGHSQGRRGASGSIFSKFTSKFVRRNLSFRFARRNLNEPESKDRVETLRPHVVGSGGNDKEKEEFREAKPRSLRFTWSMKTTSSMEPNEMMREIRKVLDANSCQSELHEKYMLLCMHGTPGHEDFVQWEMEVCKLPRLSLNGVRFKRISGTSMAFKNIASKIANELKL

[10] = biological target: SRSF protein kinase 2 (Homo sapiens) (UniProt P78362); assay: Residual activity of SRPK2 at 1 uM by microplate scintillation counting
Angiopoietin-1 receptor = Angiopoietin-1 receptor (Homo sapiens, UniProt Q02763); assay: Residual activity of TIE2 at 10 uM by microplate scintillation counting
Sequence of Angiopoietin-1 receptor (Q02763 whole entry): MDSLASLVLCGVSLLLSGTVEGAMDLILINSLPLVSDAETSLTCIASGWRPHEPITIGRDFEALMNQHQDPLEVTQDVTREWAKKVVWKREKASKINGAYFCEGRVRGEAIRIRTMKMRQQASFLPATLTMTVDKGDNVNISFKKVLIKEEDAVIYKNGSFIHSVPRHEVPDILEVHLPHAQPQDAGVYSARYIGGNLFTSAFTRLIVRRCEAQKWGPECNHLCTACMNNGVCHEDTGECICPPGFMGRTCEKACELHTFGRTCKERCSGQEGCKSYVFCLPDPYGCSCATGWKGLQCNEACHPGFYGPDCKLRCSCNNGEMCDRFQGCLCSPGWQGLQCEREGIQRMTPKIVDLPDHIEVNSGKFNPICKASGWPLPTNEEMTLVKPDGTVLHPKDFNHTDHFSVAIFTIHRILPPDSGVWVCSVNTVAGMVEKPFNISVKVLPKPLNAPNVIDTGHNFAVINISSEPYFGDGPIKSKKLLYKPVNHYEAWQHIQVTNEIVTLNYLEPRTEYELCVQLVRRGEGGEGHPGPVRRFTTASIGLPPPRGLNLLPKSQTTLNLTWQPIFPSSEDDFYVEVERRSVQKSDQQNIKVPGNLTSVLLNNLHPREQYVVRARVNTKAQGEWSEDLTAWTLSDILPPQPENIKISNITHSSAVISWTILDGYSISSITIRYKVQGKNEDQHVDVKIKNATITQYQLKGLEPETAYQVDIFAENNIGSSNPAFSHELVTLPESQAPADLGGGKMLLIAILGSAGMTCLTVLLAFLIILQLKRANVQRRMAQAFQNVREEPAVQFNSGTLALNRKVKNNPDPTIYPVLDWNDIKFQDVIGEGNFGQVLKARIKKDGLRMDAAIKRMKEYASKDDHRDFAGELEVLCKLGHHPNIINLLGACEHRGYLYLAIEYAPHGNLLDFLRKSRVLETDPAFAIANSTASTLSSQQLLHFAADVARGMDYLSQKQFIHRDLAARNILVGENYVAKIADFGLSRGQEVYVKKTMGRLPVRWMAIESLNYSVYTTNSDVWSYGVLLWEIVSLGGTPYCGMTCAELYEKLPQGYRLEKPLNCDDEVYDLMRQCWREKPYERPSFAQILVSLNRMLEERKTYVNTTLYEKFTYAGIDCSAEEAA

[11] = biological target: Cyclin-dependent kinase 4/cyclin D1 (Homo sapiens) (UniProt P11802+P24385); assay: Residual activity of CDK4/Cyclin D1 at 1 uM by microplate scintillation counting; assay type: protein-complex assay

Sequence of Serine/threonine-protein kinase 16 (Homo sapiens) (O75716 whole entry): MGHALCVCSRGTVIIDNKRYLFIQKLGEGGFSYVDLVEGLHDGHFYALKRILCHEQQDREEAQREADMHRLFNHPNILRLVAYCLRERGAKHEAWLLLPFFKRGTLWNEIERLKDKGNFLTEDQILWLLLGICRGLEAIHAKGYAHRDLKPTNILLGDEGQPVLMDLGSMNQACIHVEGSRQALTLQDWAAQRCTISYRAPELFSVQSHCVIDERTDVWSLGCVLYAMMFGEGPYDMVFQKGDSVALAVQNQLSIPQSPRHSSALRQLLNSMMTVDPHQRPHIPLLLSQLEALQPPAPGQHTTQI

SMILES	residual activity [1]	residual activity [2]	residual activity [3]	residual activity [4]	residual activity [5]	residual activity [6]	residual activity [7]	residual activity [8]	residual activity [9]	residual activity [10]	residual activity (Angiopoietin-1 receptor)	residual activity [11]
COc1cc2c(Oc3ccc(-c4nc5ccccc5s4)cc3F)ncnc2cc1OCCCN1CCN(C)CC1	59%	63%	46%	18%	101%	91%	91%	98%	87%	107%	4%	94%
COc1cc2c(Oc3ccc(-c4nc5ccccc5s4)cc3)ncnc2cc1OCCCN1CCCC1	56%	117%	169%	52%	91%	92%	68%	98%	90%	97%	4%	98%
COc1cc2c(Oc3ccc(-c4nc5ccccc5s4)cc3)ncnc2cc1OCCCN1CCN(C)CC1	66%	99%	171%	40%	88%	90%	83%	108%	82%	115%	3%	100%
